Like-named read-outs stand apart in the source and are kept apart here.
Legend:
Type in all cases: in vivo
Glycine max (GLXMA) [1] = experiment: Post-emergence crop plant compatibility, GLXMA; conditions: post-emergence, effect in comparison to untreated controls
Outline: (§1)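 Percent effect on the crop was judged by eye against untreated controls, where 0% means like control and 100% means dead plants. Plants had been sprayed post-emergence at the one-leaf stage and then kept under optimum greenhouse conditions for about 3 weeks.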

Zea mays (ZEAMX) [2] = conditions: pre-emergence, crop plant compatibility, in comparison to untreated controls
Outline: (§2)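 Crop injury rated visually in percent against untreated plants roughly 3 weeks after treatment (0% no effect, 100% plants dead). Compounds, as WP or EC with 0.5% additive in 600 l/ha water, were applied to the covering soil right after sowing; greenhouse growth. Suffixes a, b, c denote different dosages.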

Glycine max (GLXMA) [3] = conditions: pre-emergence, crop plant compatibility, in comparison to untreated controls
Outline: as §2

Brassica napus (BRSNW) [4] = conditions: crop plant compatibility, in comparison to untreated controls
Outline: as §2

[5] = system: Triticum aestivum (TRZAS); conditions: pre-emergence, crop plant compatibility, in comparison to untreated controls
Outline: as §2

Oryza sativa (ORYSA) [6] = conditions: pre-emergence, crop plant compatibility, in comparison to untreated controls
Outline: as §2

Zea mays (ZEAMX) [7] = conditions: for Post-emergence action against ZEAMX in % (crop plant compatibility): 20 g/ha, effect in comparison to untreated controls; for Post-emergence action against ZEAMX in %: crop plant compatibility, effect vs untreated controls
Outline: as §1

[8] = system: Triticum aestivum (TRZAS); conditions: crop plant compatibility, effect vs untreated controls
Outline: as §1

Oryza sativa (ORYSA) [9] = conditions: crop plant compatibility
Outline: as §1

Brassica napus (BRSNW) [10] = experiment: Post-emergence crop plant compatibility, BRSNW; conditions: effect in comparison to untreated controls
Experimental: Seeds of monocotyledonous and dicotyledonous weeds and crop plants are placed in sandy loam in plastic or organic planting pots, covered with soil and cultivated in a greenhouse under controlled growth conditions. 2 to 3 weeks after sowing, the test plants are treated at the one-leaf stage. The compounds of the invention, formulated in the form of wettable powders (WP) or as emulsion concentrates (EC), are then sprayed onto the green parts of the plants as aqueous suspension or emulsion with addition of 0.5% additive at a water application rate of 600 l/ha (converted). After the test plants have been kept in the greenhouse under optimum growth conditions for about 3 weeks, the activity of the preparations is rated visually in comparison to untreated controls. For example, 100% activity=the plants have died, 0% activity=like control plants.
The observed effects on selected crop plants are reported here in comparison to the untreated controls (values in %). The appendices “a”, “b” and “c” give differentiation by dosage used with otherwise the same crop plants tested.

Lolium rigidum (LOLRI) = experiment: Pre-emergence herbicidal action against LOLRI; conditions: dosage 320 g/ha
Outline: (§3)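 Pre-emergence soil-surface spray, WP/EC formulation, 0.5% additive, 600 l/ha water, rates of 320 g/ha or lower. Greenhouse, ~3 wk. Visual score, % of untreated control (100% = plants dead, 0% = like control).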

[11] = system: Amaranthus retroflexus (AMARE); experiment: Pre-emergence herbicidal action against AMARE; conditions: 320 g/ha, visual scoring after about 3 weeks vs untreated controls
Outline: as §3

[12] = system: Verconica persica (VERPE); experiment: Pre-emergence herbicidal action against VERPE; conditions: dosage 320 g/ha
Outline: as §3

[13] = system: Alopecurus myosuroides (ALOMY); experiment: Pre-emergence herbicidal action against ALOMY; conditions: 320 g/ha; scored visually after about 3 weeks; 100% = plants have died
Outline: as §3

Viola tricolor (VIOTR) [14] = experiment: Pre-emergence herbicidal action against VIOTR; conditions: 320 g/ha, Viola tricolor
Outline: as §3

Setaria viridis (SETVI) [15] = experiment: Pre-emergence herbicidal action against SETVI; conditions: dosage 320 g/ha
Outline: as §3

[16] = system: Amaranthus retroflexus (AMARE); experiment: Post-emergence herbicidal action against AMARE; conditions: 80 g/ha, visual rating about 3 weeks after treatment vs untreated controls (100% = plants have died, 0% = like control plants)
Outline: (§4)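 Greenhouse plants sprayed at the one-leaf stage, 2–3 weeks after sowing, with WP or EC formulations plus 0.5% additive at 600 l/ha water. Activity rated visually after about 3 weeks versus untreated controls (100% = dead, 0% = like control), at 320 g/ha or lower.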

[17] = system: Verconica persica (VERPE); experiment: Post-emergence herbicidal action against VERPE; conditions: 320 g/ha, VERPE
Outline: as §4

Viola tricolor (VIOTR) [18] = experiment: Post-emergence herbicidal action against VIOTR; conditions: 320 g/ha
Outline: as §4

Setaria viridis (SETVI) [19] = experiment: Post-emergence herbicidal action against SETVI; conditions: dosage 320 g/ha
Outline: as §4

[20] = system: Echinochloa crus-galli (ECHCG); experiment: Post-emergence herbicidal action against ECHCG; conditions: dosage 320 g/ha
Outline: as §4

[21] = system: Polygonum convolvulus (POLCO); experiment: Pre-emergence herbicidal action against POLCO; conditions: dosage 320 g/ha
Outline: as §3

[22] = system: Digitaria sanguinalis (DIGSA); experiment: Pre-emergence herbicidal action against DIGSA
Outline: as §3

[23] = 20 g/ha, effect vs untreated controls
[24] = 80 g/ha, effect in comparison to untreated controls
[25] = 320 g/ha, effect in comparison to untreated controls

Row | Structure (SMILES) | Post-emergence action against GLXMA in % (Glycine max (GLXMA) [1]; 20 g/ha) | Post-emergence action against GLXMA in % (Glycine max (GLXMA) [1]; 80 g/ha) | Pre-emergence action against ZEAMX in % (Zea mays (ZEAMX) [2]; 80 g/ha) | Pre-emergence action against ZEAMX in % (Zea mays (ZEAMX) [2]; 320 g/ha) | Pre-emergence action against GLXMA in % (Glycine max (GLXMA) [3]; 80 g/ha) | Pre-emergence action against GLXMA in % (Glycine max (GLXMA) [3]; 320 g/ha) | Pre-emergence action against BRSNW in % (Brassica napus (BRSNW) [4]; 80 g/ha) | Pre-emergence action against BRSNW in % (Brassica napus (BRSNW) [4]; 320 g/ha) | Pre-emergence action against TRZAS in % ([5]; 80 g/ha) | Pre-emergence action against TRZAS in % ([5]; 320 g/ha) | Pre-emergence action against ORYSA in % (Oryza sativa (ORYSA) [6]; 80 g/ha) | Pre-emergence action against ORYSA in % (Oryza sativa (ORYSA) [6]; 320 g/ha) | Post-emergence action against ZEAMX in % (crop plant compatibility) (Zea mays (ZEAMX) [7]) | Post-emergence action against ZEAMX in % (Zea mays (ZEAMX) [7]; 80 g/ha) | Post-emergence action against TRZAS in % ([8]; 20 g/ha) | Post-emergence action against TRZAS in % ([8]; 80 g/ha) | Post-emergence action against ORYSA in % (Oryza sativa (ORYSA) [9]; [23]) | Post-emergence action against ORYSA in % (Oryza sativa (ORYSA) [9]; [24]) | Post-emergence action against BRSNW in % (Brassica napus (BRSNW) [10]; 20 g/ha) | Post-emergence action against BRSNW in % (Brassica napus (BRSNW) [10]; 80 g/ha) | further results
1 | COC(=O)C1CCCN(C(=O)COc2nn(-c3ccccn3)c(-c3ccc(F)nc3)c2Br)C1 (stereo not shown) [Example I-108] | 0% | 10% | 10% | 10% | 0% | 0% | 10% | 20% | 0% | 10% | 0% | 10% | 0% | 10% | 0% | 20% | 0% | 10% | 10% | – | –
2 | C[C@@H](Oc1nn(-c2ncccc2F)c(-c2ccc(F)nc2)c1Br)C(=O)O [Example I-50] | 0% | 10% | 0% | 0% | – | – | 0% | 20% | 10% | 10% | – | – | 0% | 0% | 10% | 10% | 10% | 10% | 10% | 20% | –
3 | COC(=O)CNC(=O)COc1nn(-c2ccccn2)c(-c2ccc(F)nc2)c1C1CC1 [Example I-70] | – | – | 0% | 0% | 10% | – | 20% | – | 10% | – | 0% | 10% | 0% | 10% | 0% | 10% | 0% | 0% | 20% | – | Pre-emergence action against LOLRI in % (Lolium rigidum (LOLRI)): 90%; Pre-emergence action against AMARE in % [11]: 90%; Pre-emergence action against VERPE in % [12]: 80%; Pre-emergence action against ALOMY [13]: 90%; Pre-emergence action against VIOTR in % (Viola tricolor (VIOTR) [14]): 90%; Pre-emergence action against SETVI in % (Setaria viridis (SETVI) [15]): 90%; Post-emergence action against AMARE in % [16]: 90%
4 | CCOC(=O)C(Oc1nn(-c2ccccn2)c(-c2ccc(F)nc2)c1Br)C(C)C (stereo not shown) [Example I-349] | – | 0% | 10% | 20% | 0% | 10% | – | – | 10% | – | – | – | – | – | – | – | – | 0% | – | 20% | Pre-emergence action against VIOTR in % (Viola tricolor (VIOTR) [14]): 80%; Post-emergence action against VIOTR in % (Viola tricolor (VIOTR) [18]): 80%; Pre-emergence action against POLCO in % [21]: 80%; Post-emergence action against ORYSA in % (Oryza sativa (ORYSA) [9]; [25]): 10%; Pre-emergence action against DIGSA in % ([22]; 80 g/ha, visual scoring after about 3 weeks vs untreated controls): 80%; Pre-emergence action against DIGSA in % ([22]; dosage 320 g/ha): 90%
5 | CCOC(=O)COc1nn(-c2ncccc2F)c(-c2ccc(F)nc2)c1I [Example I-55] | 0% | 0% | 0% | 0% | 0% | 0% | 0% | 0% | 0% | 0% | 0% | 0% | 0% | 0% | 0% | 0% | 0% | 0% | 0% | 0% | –
6 | COC(=O)C1CCN(C(=O)COc2nn(-c3ccccn3)c(-c3ccc(F)nc3)c2Br)C1 (stereo not shown) [Example I-109] | – | – | 10% | 10% | 20% | 20% | 10% | 10% | 0% | 10% | 10% | 10% | 10% | 10% | 0% | 10% | 0% | 0% | 0% | 10% | –

Now from value to compound, other results behind:

Row | Post-emergence action against GLXMA in % (Glycine max (GLXMA) [1]; 20 g/ha) | Post-emergence action against GLXMA in % (Glycine max (GLXMA) [1]; 80 g/ha) | Pre-emergence action against ZEAMX in % (Zea mays (ZEAMX) [2]; 80 g/ha) | Pre-emergence action against ZEAMX in % (Zea mays (ZEAMX) [2]; 320 g/ha) | Pre-emergence action against GLXMA in % (Glycine max (GLXMA) [3]; 80 g/ha) | Pre-emergence action against GLXMA in % (Glycine max (GLXMA) [3]; 320 g/ha) | Pre-emergence action against BRSNW in % (Brassica napus (BRSNW) [4]; 80 g/ha) | Pre-emergence action against BRSNW in % (Brassica napus (BRSNW) [4]; 320 g/ha) | Pre-emergence action against TRZAS in % ([5]; 80 g/ha) | Pre-emergence action against TRZAS in % ([5]; 320 g/ha) | Pre-emergence action against ORYSA in % (Oryza sativa (ORYSA) [6]; 80 g/ha) | Pre-emergence action against ORYSA in % (Oryza sativa (ORYSA) [6]; 320 g/ha) | Post-emergence action against ZEAMX in % (crop plant compatibility) (Zea mays (ZEAMX) [7]) | Post-emergence action against ZEAMX in % (Zea mays (ZEAMX) [7]; 80 g/ha) | Post-emergence action against TRZAS in % ([8]; 20 g/ha) | Post-emergence action against TRZAS in % ([8]; 80 g/ha) | Post-emergence action against ORYSA in % (Oryza sativa (ORYSA) [9]; [23]) | Post-emergence action against ORYSA in % (Oryza sativa (ORYSA) [9]; [24]) | Post-emergence action against BRSNW in % (Brassica napus (BRSNW) [10]; 20 g/ha) | Post-emergence action against BRSNW in % (Brassica napus (BRSNW) [10]; 80 g/ha) | Structure (SMILES) | further results
7 | – | – | 0% | – | – | – | 0% | – | 0% | 0% | 0% | 0% | – | – | – | 0% | – | 0% | – | 20% | O=C(O)C1CCN(C(=O)COc2nn(-c3ccccn3)c(-c3ccc(F)nc3)c2Br)CC1 [Example I-62] | Post-emergence action against ZEAMX in % (Zea mays (ZEAMX) [7]; 320 g/ha): 20%; Post-emergence action against TRZAS in % ([8]; 320 g/ha): 0%; Post-emergence action against ORYSA in % (Oryza sativa (ORYSA) [9]; [25]): 0%
8 | 0% | 0% | 0% | 0% | – | 20% | 0% | – | 0% | 0% | 0% | 10% | 0% | – | 0% | 0% | 0% | 0% | 0% | – | O=C(COc1nn(-c2ccnc(Cl)c2)c(-c2ccc(F)nc2)c1Br)NS(=O)(=O)CC(F)(F)F [III-20] | –
9 | 0% | – | – | – | – | – | – | – | – | – | – | – | 0% | 0% | 0% | 0% | 0% | 0% | 0% | – | COC(=O)CNC(=O)COc1nn(-c2cccnc2C)c(-c2cncc(F)c2)c1Br [II-37] | Post-emergence action against VERPE in % [17]: 90%; Post-emergence action against VIOTR in % (Viola tricolor (VIOTR) [18]): 80%; Post-emergence action against SETVI in % (Setaria viridis (SETVI) [19]): 80%; Post-emergence action against ZEAMX in % (Zea mays (ZEAMX) [7]; 320 g/ha): 0%; Post-emergence action against TRZAS in % ([8]; 320 g/ha): 0%; Post-emergence action against ORYSA in % (Oryza sativa (ORYSA) [9]; [25]): 0%; Post-emergence action against ECHCG in % [20]: 80%

Source: US20240041042A1, “1-(PYRIDYL)-5-AZINYLPYRAZOLE DERIVATIVES, AND THEIR USE FOR CONTROL OF UNDESIRED PLANT GROWTH” (Bayer Aktiengesellschaft, priority 2020, published 2024)
